Marks after values point to notes of the source that are not given here.
Test system: red blood cells
Assay: Gel card agglutination with rabbit anti-acridine sera
Type: cell-based
Protocol: The reduction in modification of red blood cells in the methods of the present invention can be evaluated by several assays. In one assay, rabbit polyclonal sera that is reactive with acridine is produced by injecting New Zealand White rabbits with an acridine compound conjugated to KLH.
This is conjugated to KLH by adding 10 μL of the compound (10 mM in de-ionized water) to 990 μL of a buffered solution of KLH (10 mg/mL in 50 mM Phosphate, 150 mM NaCl, PBS pH=7.2 with proprietary stabilizer, Pierce Cat # 77600) and incubating at room temperature for over 20 hours. Following this incubaton, the conjugated KLH is isolated from the unreacted S-197 and S-197 by-products by passing through a desalting column (e.g. D-salt columns, Pierce) and eluting in PBS buffer. The colored fractions of the solutions are then combined and the KLH conjugates are characterized by the ratio of absorbance at 210 and 410 nm. The acridine-KLH conjugate solutions are mixed with Complete Freund's Adjuvant for intramuscular injection into the rabbits at multiple sites to immunize the rabbits. […] The resulting solution can be assayed for agglutination by passing through a Buffer Gel Card (Micro Typing Systems, Pompano Beach, Fla.). The gel cards are designed to allow non-agglutinated red blood cells to pass through, while cells agglutinated by reaction with the rabbit sera and cross reacting with the anti-rabbit antibody will remain at the top of the gel. The cards are scored as 0, 1+, 2+, 3+, or 4+, where 0 indicates all cells are intact and are at the bottom of the gel, while 4+ indicates complete agglutination, with all cells at the top of the gel.
In these, the appropriate amount of 600 mM stock was added, mixed with an appropriate volume of 8% dextrose to provide the same volume addition to each RBC sample where in one study, with varied glutathione concentrations, the pH was measured after adding glutathione and after adding PIC-1. […] Similar samples were also assessed for the inactivation of S. epidermidis. […] For gel card analysis, after incubation, the RBC were washed in BBS and were diluted in BBS to a final hematocrit of 4%. A 25 μL aliquot of each was mixed with 15 μL of rabbit polyclonal anti-acridine sera diluted either 1:4 or 1:100 in BBS and the mixture was incubated at 37° C. for 30 minutes. The cells were subsequently washed with 1.5 mL BBS. […]
Heterophile antibodies are naturally occurring antibodies that recognize RBC from another species in a non-specific fashion. […] All samples were mixed with quencher first, then PIC-1 at 0.2 mM.
The standard condition was included, i.e. 0.2 mM PIC-1 and 2 mM acidic glutathione added together.

For `O=C(CCNc1c2ccccc2nc2ccccc12)OCCN(CCCl)CCCl` [PIC-1], the Gel card score (Table 11A samples, rabbit sera 1:4, all samples) was 4+, the Gel card score (Table 11B: 2 mM GSH, 1 eq. base, 0.2 mM PIC-1, sera 1:100, secondary 1:4) was 4+ and the Gel card score (Table 11B: 2 mM GSH, 2 eq. base, 0.2 mM PIC-1, sera 1:100, secondary 1:4) was 3+. For the same compound, the Gel card score (Table 11B: 2 mM GSH, no added base, 0.2 mM PIC-1, sera 1:100, secondary 1:4) was 3+, the Gel card score (Table 11B: 5 mM GSH, 1 eq. base, 0.2 mM PIC-1, sera 1:100, secondary 1:4) was 3+ and the Gel card score (Table 11B: 5 mM GSH, 2 eq. base, 0.2 mM PIC-1, sera 1:100, secondary 1:4) was 2+. The Gel card score (Table 11B: 5 mM GSH, no added base, 0.2 mM PIC-1, sera 1:100, secondary 1:4) was 3+/MX*, the Gel card score (Table 11B: 10 mM GSH, 1 eq. base, 0.2 mM PIC-1, sera 1:100, secondary 1:4) was 2+ and the Gel card score (Table 11B: 10 mM GSH, 2 eq. base, 0.2 mM PIC-1, sera 1:100, secondary 1:4) was 1+. The Gel card score (Table 11B: 10 mM GSH, no added base, 0.2 mM PIC-1, sera 1:100, secondary 1:4) was 3+/MX*, the Gel card score (Table 11B: 20 mM GSH, 1 eq. base, 0.2 mM PIC-1, sera 1:100, secondary 1:4) was 1+ and the Gel card score (Table 11B: 20 mM GSH, 2 eq. base, 0.2 mM PIC-1, sera 1:100, secondary 1:4) was 0. For the same compound, the Gel card score (Table 11B: 20 mM GSH, no added base, 0.2 mM PIC-1, sera 1:100, secondary 1:4) was 3+, the Gel card score (Table 12: 2 mM acidic GSH, 0.2 mM PIC-1, sera 1:4, no secondary Ab) was 3+ and the Gel card score (Table 12: 2 mM acidic GSH, 0.2 mM PIC-1, sera 1:4, secondary Ab 1:4) was 4+. For the same compound, the Gel card score (Table 12: 2 mM acidic GSH, 0.2 mM PIC-1, sera 1:100, no secondary Ab) was 0, the Gel card score (Table 12: 2 mM acidic GSH, 0.2 mM PIC-1, sera 1:100, secondary Ab 1:4) was 4 and the Gel card score (Table 12: 5 mM Cys 1eq, 0.2 mM PIC-1, sera 1:4, no secondary Ab) was 1+. For the same compound, the Gel card score (Table 12: 5 mM Cys 1eq, 0.2 mM PIC-1, sera 1:4, secondary Ab 1:4) was 4+, the Gel card score (Table 12: 5 mM Cys 1eq, 0.2 mM PIC-1, sera 1:100, no secondary Ab) was 0 and the Gel card score (Table 12: 5 mM Cys 1eq, 0.2 mM PIC-1, sera 1:100, secondary Ab 1:4) was 1*. The Gel card score (Table 12: 10 mM Cys 1eq, 0.2 mM PIC-1, sera 1:4, no secondary Ab) was 0, the Gel card score (Table 12: 10 mM Cys 1eq, 0.2 mM PIC-1, sera 1:4, secondary Ab 1:4) was 3+ and the Gel card score (Table 12: 10 mM Cys 1eq, 0.2 mM PIC-1, sera 1:100, no secondary Ab) was 0. The Gel card score (Table 12: 10 mM Cys 1eq, 0.2 mM PIC-1, sera 1:100, secondary Ab 1:4) was 0, the Gel card score (Table 12: 15 mM Cys 1eq, 0.2 mM PIC-1, sera 1:4, no secondary Ab) was 0 and the Gel card score (Table 12: 15 mM Cys 1eq, 0.2 mM PIC-1, sera 1:4, secondary Ab 1:4) was 1*. The Gel card score (Table 12: 15 mM Cys 1eq, 0.2 mM PIC-1, sera 1:100, no secondary Ab) was 0, the Gel card score (Table 12: 15 mM Cys 1eq, 0.2 mM PIC-1, sera 1:100, secondary Ab 1:4) was 0 and the Gel card score (Table 12: 20 mM Cys 1eq, 0.2 mM PIC-1, sera 1:4, no secondary Ab) was 0. For the same compound, the Gel card score (Table 12: 20 mM Cys 1eq, 0.2 mM PIC-1, sera 1:4, secondary Ab 1:4) was 0, the Gel card score (Table 12: 20 mM Cys 1eq, 0.2 mM PIC-1, sera 1:100, no secondary Ab) was 0 and the Gel card score (Table 12: 20 mM Cys 1eq, 0.2 mM PIC-1, sera 1:100, secondary Ab 1:4) was 0. For the same compound, the Gel card score (Table 12: 20 mM GSH 2eq, 0.2 mM PIC-1, sera 1:4, no secondary Ab) was 0, the Gel card score (Table 12: 20 mM GSH 2eq, 0.2 mM PIC-1, sera 1:4, secondary Ab 1:4) was 3+ and the Gel card score (Table 12: 20 mM GSH 2eq, 0.2 mM PIC-1, sera 1:100, no secondary Ab) was 0. For the same compound, the Gel card score (Table 12: 20 mM GSH 2eq, 0.2 mM PIC-1, sera 1:100, secondary Ab 1:4) was 0, the Gel card score (Table 12: […] Cys 1eq, 0.2 mM PIC-1, sera 1:4, no secondary Ab) was 2+ and the Gel card score (Table 12: […] Cys 1eq, 0.2 mM PIC-1, sera 1:4, secondary Ab 1:4) was 4+. The Gel card score (Table 12: […] Cys 1eq, 0.2 mM PIC-1, sera 1:100, no secondary Ab) was 0, the Gel card score (Table 12: […] Cys 1eq, 0.2 mM PIC-1, sera 1:100, secondary Ab 1:4) was 3 and the Gel card score (Table 13: 0.2 mM PIC-1 no quencher, blood sample 1, sera 1:4) was 4+. The Gel card score (Table 13: 0.2 mM PIC-1 no quencher, blood sample 1, sera 1:100) was 4+, the Gel card score (Table 13: 0.2 mM PIC-1 no quencher, blood sample 2, sera 1:4) was 4+ and the Gel card score (Table 13: 0.2 mM PIC-1 no quencher, blood sample 2, sera 1:100) was 4+. For the same compound, the Gel card score (Table 13: 2 mM acidic GSH, 0.2 mM PIC-1, blood sample 1, sera 1:4) was 4+, the Gel card score (Table 13: 2 mM acidic GSH, 0.2 mM PIC-1, blood sample 1, sera 1:100) was 4+ and the Gel card score (Table 13: 2 mM acidic GSH, 0.2 mM PIC-1, blood sample 2, sera 1:4) was 4+. For the same compound, the Gel card score (Table 13: 2 mM acidic GSH, 0.2 mM PIC-1, blood sample 2, sera 1:100) was 4+ and the Gel card score (Table 13: 5 mM GSH 2eq/15 mM Cys 1eq, 0.2 mM PIC-1, blood sample 1, sera 1:4) was 2.

— patent US7655392B2, “Quenching methods for red blood cell inactivation process” (priority 2004, dated 2010)
